The source made the active and inactive calls. The calls are words filed in the database; no cut-off is given here.
Legend:
BaF3 [1] = test: Antiproliferative activity against crizotinib resistant mouse BaF3 cells expressing EML4 fused ALK L1152P mutant assessed as reduction in cell viability incubated for 72 hrs by Celltitre-Glo luminescent assay; type: functional, cell-based; conditions: BaF3, 72 h
cells [2] = conditions: Mus musculus, BaF3, 72 h
BaF3 [3] = test: Antiproliferative activity against crizotinib resistant mouse BaF3 cells expressing EML4 fused ALK T1151Tins mutant assessed as reduction in cell viability incubated for 72 hrs by Celltitre-Glo luminescent assay; type: functional, cell-based; conditions: BaF3, 72 h, read-out: IC50
BaF3 [4] = test: cells; conditions: Mus musculus
Description: Antiproliferative activity against mouse BaF3 cells harbouring ALK C1156Y mutant assessed as reduction in cell viability by Celltitre-Glo luminescent assay

LU-01-0319R [5] = test: Antitumor activity against crizotinib-resistant patient derived LU-01-0319R cells xenografted in nude mouse assessed as tumor regression at 10 mg/kg, po dosed once daily for 21 days; type: functional, organism-based; conditions: Homo sapiens, time 21.0 day
LU-01-0319 = test: Antitumor activity against crizotinib-resistant patient derived LU-01-0319 cells xenografted in mouse assessed as tumor regression at 2.5 mg/kg, po; type: functional, organism-based; conditions: Homo sapiens
cells [6] = conditions: Mus musculus, Ba/F3 EML4-ALK-G1202R, 72 h
[7] = Volume of distribution at steady state in Beagle dog at 1 mg/kg, iv; type: ADME, organism-based, Canis lupus familiaris; conditions: in vivo, read-out: Vdss
BaF3 [8] = test: cells; conditions: Mus musculus; remark: listed apart in the source
Description: Antiproliferative activity against mouse BaF3 cells harbouring ALK wild type assessed as reduction in cell viability by Celltitre-Glo luminescent assay

[9] = Cmax in Cynomolgus monkey at 2 mg/kg, po; type: ADME, organism-based, Macaca fascicularis; design: dose 2 mg/kg, route po; conditions: in vivo
cells [10] = conditions: Mus musculus, BaF3, 72 h; remark: listed apart in the source
cells [11] = conditions: Mus musculus, Ba/F3 EML4-ALK, 72 h
[12] = target: T1, Signal transducer and activator of transcription 5A (Homo sapiens) (UniProt P42229); test: Inhibition of STAT5 phosphorylation in human NCI-H3122 cells by Western blotting analysis; type: cell-based; conditions: DDE = dose-dependent effect
T1 sequence (whole entry): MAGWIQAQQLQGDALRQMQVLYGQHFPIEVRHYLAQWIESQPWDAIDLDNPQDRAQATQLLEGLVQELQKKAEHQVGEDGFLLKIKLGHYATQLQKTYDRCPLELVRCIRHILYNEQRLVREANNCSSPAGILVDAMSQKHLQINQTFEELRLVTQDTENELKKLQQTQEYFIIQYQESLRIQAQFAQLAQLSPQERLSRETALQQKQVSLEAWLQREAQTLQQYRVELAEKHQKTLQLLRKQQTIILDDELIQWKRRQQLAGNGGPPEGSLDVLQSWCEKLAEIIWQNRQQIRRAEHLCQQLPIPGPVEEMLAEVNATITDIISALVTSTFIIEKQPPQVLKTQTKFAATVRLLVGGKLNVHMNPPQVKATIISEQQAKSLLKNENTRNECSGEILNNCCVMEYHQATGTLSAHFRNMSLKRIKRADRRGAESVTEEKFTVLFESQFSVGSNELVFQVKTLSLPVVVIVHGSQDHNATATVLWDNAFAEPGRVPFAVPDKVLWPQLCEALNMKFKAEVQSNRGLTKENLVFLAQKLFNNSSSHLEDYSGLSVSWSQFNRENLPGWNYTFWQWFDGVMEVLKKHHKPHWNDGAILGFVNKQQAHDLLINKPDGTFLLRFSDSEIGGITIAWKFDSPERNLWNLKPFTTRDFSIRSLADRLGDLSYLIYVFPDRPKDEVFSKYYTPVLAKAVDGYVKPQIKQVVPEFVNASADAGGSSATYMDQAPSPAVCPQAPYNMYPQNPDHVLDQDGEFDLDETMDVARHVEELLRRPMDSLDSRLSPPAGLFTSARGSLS

[13] = Clearance in Balb/c nude mouse at 1 mg/kg, iv; type: ADME, organism-based; conditions: in vivo
[14] = Clearance in Beagle dog at 1 mg/kg, iv; type: ADME, organism-based, Canis lupus familiaris; conditions: in vivo
[15] = target: ALK tyrosine kinase receptor (Homo sapiens, UniProt Q9UM73, C1156Y)
[16] = Half-life in Balb/c nude mouse at 1 mg/kg, iv; type: ADME, organism-based; conditions: in vivo
NCI-H3122 [17] = test: Inhibition of ERK phosphorylation in human NCI-H3122 cells by Western blotting analysis; type: cell-based; conditions: DDE = dose-dependent effect
[18] = Half-life in Beagle dog at 1 mg/kg, iv; type: ADME, organism-based, Canis lupus familiaris; conditions: in vivo
NCI-H3122 [19] = test: Inhibition of AKT phosphorylation in human NCI-H3122 cells at highest concentration by Western blotting analysis; type: cell-based
BaF3 [20] = test: Antiproliferative activity against mouse BaF3 cells harbouring SLC34A2-ROS1-L2026M mutant assessed as reduction in cell viability incubated for 72 hrs by Celltitre-Glo luminescent assay; type: functional, cell-based; conditions: BaF3, 72 h
[21] = AUC (0 to last) in Balb/c nude mouse at 5 mg/kg, po; type: ADME, organism-based; design: time 0 - last, dose 5 mg/kg, route po; conditions: in vivo
BaF3 [22] = test: Antiproliferative activity against crizotinib resistant mouse BaF3 cells expressing EML4 fused ALK I1171T mutant assessed as reduction in cell viability incubated for 72 hrs by Celltitre-Glo luminescent assay; type: functional, cell-based; conditions: BaF3, 72 h
[23] = Cmax in Balb/c nude mouse at 5 mg/kg, po; type: ADME, organism-based; design: dose 5 mg/kg, route po; conditions: in vivo
BaF3 [24] = test: Antiproliferative activity against crizotinib resistant mouse BaF3 cells expressing EML4 fused ALK F1174C mutant assessed as reduction in cell viability incubated for 72 hrs by Celltitre-Glo luminescent assay; type: functional, cell-based; conditions: BaF3, 72 h
[25] = Cmax in Sprague-Dawley rat at 8 mg/kg, po; type: ADME, organism-based; design: dose 8 mg/kg, route po; conditions: in vivo
BaF3 [26] = test: Antiproliferative activity against crizotinib resistant mouse BaF3 cells expressing EML4 fused ALK L1152R mutant assessed as reduction in cell viability incubated for 72 hrs by Celltitre-Glo luminescent assay; type: functional, cell-based; conditions: BaF3, 72 h
[27] = Toxicity in nude mouse xenografted with crizotinib-resistant patient derived LU-01-0319R cells assessed as tolerance at 2.5 to 10 mg/kg, po dosed once daily for 21 days; type: organism-based; conditions: in vivo, 504 h, dose 2.5-10 mg/kg, time 21 day
[28] = Toxicity in nude mouse xenografted with crizotinib-resistant patient derived LU-01-0319R cells assessed as body weight change at 2.5 to 10 mg/kg, po dosed once daily for 21 days; type: organism-based; conditions: in vivo, 504 h, dose 2.5-10 mg/kg, time 21 day
LU-01-0319R [29] = test: Antitumor activity against crizotinib-resistant patient derived LU-01-0319R cells xenografted in nude mouse at 2.5 to 10 mg/kg, po dosed once daily for 21 days; type: functional, organism-based; conditions: Homo sapiens, dose 2.5-10 mg/kg, time 21.0 day
BaF3 [30] = test: Antiproliferative activity against mouse BaF3 cells harbouring CD74-ROS1-S1986Y mutant assessed as reduction in cell viability incubated for 72 hrs by Celltitre-Glo luminescent assay; type: functional, cell-based; conditions: BaF3, 72 h
[31] = target: T2, ALK tyrosine kinase receptor (Homo sapiens, UniProt Q9UM73)
Target sequence in this assay (Q9UM73 whole entry): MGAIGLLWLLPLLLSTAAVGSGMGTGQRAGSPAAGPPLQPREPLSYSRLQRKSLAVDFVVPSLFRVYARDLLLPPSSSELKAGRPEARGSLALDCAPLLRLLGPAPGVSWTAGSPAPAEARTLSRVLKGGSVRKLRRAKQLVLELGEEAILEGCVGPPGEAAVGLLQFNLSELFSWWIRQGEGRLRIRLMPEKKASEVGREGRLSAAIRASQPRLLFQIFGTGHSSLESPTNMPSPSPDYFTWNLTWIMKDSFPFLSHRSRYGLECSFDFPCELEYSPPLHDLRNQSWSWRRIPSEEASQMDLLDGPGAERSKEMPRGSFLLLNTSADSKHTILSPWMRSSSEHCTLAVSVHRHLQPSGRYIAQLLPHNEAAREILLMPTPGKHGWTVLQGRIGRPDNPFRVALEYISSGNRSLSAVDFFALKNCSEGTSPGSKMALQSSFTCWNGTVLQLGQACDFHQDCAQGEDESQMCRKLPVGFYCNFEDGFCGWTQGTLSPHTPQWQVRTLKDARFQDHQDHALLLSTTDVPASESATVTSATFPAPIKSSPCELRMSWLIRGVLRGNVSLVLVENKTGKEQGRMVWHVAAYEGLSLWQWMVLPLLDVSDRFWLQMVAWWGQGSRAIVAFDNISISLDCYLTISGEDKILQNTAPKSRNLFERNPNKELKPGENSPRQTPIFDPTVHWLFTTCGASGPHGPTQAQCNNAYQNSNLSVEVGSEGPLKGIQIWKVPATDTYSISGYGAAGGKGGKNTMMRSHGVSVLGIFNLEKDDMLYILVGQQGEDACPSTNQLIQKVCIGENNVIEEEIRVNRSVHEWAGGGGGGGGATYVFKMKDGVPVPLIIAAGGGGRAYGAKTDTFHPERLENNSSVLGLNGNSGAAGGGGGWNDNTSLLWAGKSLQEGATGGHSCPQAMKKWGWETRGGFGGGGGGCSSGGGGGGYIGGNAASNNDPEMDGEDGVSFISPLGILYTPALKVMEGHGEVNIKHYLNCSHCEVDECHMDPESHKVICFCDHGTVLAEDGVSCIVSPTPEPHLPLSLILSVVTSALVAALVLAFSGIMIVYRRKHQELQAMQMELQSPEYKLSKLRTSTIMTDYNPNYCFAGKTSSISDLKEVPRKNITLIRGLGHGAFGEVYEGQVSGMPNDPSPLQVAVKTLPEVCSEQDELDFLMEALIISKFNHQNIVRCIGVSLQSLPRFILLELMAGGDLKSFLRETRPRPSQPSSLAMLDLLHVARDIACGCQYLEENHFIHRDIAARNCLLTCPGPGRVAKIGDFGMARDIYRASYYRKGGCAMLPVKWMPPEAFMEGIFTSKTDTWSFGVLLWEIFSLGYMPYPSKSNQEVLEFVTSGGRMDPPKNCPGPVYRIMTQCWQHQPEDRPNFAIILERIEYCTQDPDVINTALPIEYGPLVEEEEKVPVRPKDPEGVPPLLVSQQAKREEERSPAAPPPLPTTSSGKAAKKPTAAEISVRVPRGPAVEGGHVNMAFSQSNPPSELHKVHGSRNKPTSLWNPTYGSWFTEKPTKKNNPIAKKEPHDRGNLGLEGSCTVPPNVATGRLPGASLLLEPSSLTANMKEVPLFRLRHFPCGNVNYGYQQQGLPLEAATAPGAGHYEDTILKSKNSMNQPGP

[32] = Volume of distribution at steady state in Balb/c nude mouse at 1 mg/kg, iv; type: ADME, organism-based; conditions: in vivo, read-out: Vdss
BaF3 [33] = test: Antiproliferative activity against mouse BaF3 cells harbouring CD74-ROS1-S1986F mutant assessed as reduction in cell viability incubated for 72 hrs by Celltitre-Glo luminescent assay; type: functional, cell-based; conditions: BaF3, 72 h
BaF3 [34] = test: Antiproliferative activity against mouse BaF3 cells harbouring CD74-ROS1-D2033N mutant assessed as reduction in cell viability incubated for 72 hrs by Celltitre-Glo luminescent assay; type: functional, cell-based; conditions: BaF3, 72 h
[35] = AUC (0 to last) in Cynomolgus monkey at 2 mg/kg, po; type: ADME, organism-based, Macaca fascicularis; design: time 0 - last, dose 2 mg/kg, route po; conditions: in vivo
[36] = AUC (0 to last) in Sprague-Dawley rat at 8 mg/kg, po; type: ADME, organism-based; design: time 0 - last, dose 8 mg/kg, route po; conditions: in vivo
[37] = Oral bioavailability in Balb/c nude mouse at 5 mg/kg; type: ADME, organism-based; conditions: in vivo
cells [38] = conditions: Mus musculus, BaF3, 72 h; remark: listed apart in the source
BaF3 [39] = test: Antiproliferative activity against crizotinib resistant mouse BaF3 cells expressing EML4 fused ALK V1180L mutant assessed as reduction in cell viability incubated for 72 hrs by Celltitre-Glo luminescent assay; type: functional, cell-based; conditions: BaF3, 72 h
BaF3 [40] = test: cells; conditions: Mus musculus; remark: listed apart in the source
Description: Antiproliferative activity against mouse BaF3 cells harbouring ALK L1196M mutant assessed as reduction in cell viability by Celltitre-Glo luminescent assay

[41] = target: T2, ALK tyrosine kinase receptor; test: Inhibition of ALK phosphorylation in human NCI-H3122 cells by Western blotting analysis; type: cell-based; conditions: DDE = dose-dependent effect
Target sequence in this assay (Q9UM73 19-1620 limits assumed): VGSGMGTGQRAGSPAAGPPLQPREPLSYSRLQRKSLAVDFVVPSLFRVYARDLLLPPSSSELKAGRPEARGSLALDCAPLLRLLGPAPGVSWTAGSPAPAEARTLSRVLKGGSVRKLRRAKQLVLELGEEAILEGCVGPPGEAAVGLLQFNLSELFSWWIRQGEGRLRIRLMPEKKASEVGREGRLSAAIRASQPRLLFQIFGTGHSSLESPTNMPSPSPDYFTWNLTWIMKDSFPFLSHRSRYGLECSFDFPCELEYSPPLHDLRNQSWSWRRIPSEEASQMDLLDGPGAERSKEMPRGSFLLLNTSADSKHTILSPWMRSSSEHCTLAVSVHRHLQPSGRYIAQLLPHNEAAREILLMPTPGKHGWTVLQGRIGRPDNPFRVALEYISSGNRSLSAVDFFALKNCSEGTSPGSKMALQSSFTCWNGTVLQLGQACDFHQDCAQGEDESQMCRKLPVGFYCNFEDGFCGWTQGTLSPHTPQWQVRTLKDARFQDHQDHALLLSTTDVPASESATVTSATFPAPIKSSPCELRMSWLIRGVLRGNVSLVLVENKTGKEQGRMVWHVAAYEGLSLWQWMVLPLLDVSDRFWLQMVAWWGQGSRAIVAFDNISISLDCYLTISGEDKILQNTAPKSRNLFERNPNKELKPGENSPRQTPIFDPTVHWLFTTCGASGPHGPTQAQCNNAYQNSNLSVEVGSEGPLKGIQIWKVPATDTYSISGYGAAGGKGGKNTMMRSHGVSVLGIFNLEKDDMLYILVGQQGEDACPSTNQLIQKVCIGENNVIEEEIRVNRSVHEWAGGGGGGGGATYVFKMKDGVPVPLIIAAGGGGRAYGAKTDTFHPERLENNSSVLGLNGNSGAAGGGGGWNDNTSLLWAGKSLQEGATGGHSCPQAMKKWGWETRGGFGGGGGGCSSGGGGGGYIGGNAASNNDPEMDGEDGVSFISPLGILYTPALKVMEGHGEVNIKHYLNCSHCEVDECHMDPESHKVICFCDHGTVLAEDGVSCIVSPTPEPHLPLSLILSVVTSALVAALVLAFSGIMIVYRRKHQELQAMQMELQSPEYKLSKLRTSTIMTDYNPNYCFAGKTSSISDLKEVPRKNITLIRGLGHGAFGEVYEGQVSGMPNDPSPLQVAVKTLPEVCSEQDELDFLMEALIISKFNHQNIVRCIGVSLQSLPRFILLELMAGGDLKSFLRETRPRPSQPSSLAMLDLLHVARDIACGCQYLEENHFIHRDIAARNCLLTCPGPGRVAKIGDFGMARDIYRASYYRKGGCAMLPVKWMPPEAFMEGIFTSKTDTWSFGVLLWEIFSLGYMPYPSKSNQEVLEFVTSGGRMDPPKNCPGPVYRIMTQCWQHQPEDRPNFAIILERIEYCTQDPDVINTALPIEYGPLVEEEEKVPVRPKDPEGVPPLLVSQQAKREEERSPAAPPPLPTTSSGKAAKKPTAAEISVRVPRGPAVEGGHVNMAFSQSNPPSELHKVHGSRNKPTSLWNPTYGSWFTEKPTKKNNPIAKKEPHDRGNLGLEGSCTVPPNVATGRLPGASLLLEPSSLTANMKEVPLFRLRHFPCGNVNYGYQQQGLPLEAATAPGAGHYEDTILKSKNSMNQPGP

BaF3 [42] = test: Antiproliferative activity against crizotinib resistant mouse BaF3 cells expressing EML4 fused ALK I1171N mutant assessed as reduction in cell viability incubated for 72 hrs by Celltitre-Glo luminescent assay; type: functional, cell-based; conditions: BaF3, 72 h, read-out: IC50
BaF3 [43] = test: Antiproliferative activity against crizotinib resistant mouse BaF3 cells expressing EML4 fused ALK I1171S mutant assessed as reduction in cell viability incubated for 72 hrs by Celltitre-Glo luminescent assay; type: functional, cell-based; conditions: BaF3, 72 h
KARPAS-299 = test: cells; conditions: Homo sapiens
Description: Antiproliferative activity against human KARPAS-299 cells harbouring wild type ALK assessed as reduction in cell viability by Celltitre-Glo luminescent assay

BaF3 [44] = test: Antiproliferative activity against crizotinib resistant mouse BaF3 cells expressing EML4 fused ALK F1174V mutant assessed as reduction in cell viability incubated for 72 hrs by Celltitre-Glo luminescent assay; type: functional, cell-based; conditions: BaF3, 72 h

Chain of ALK tyrosine kinase receptor (Homo sapiens, UniProt Q9UM73, C1156Y) (Q9UM73 19-1620 C1156Y limits assumed): as the sequence (Q9UM73 19-1620 limits assumed) above, with C1138Y counted along it

COc1cc(N2CCC3(CCN(C)CC3)CC2)ccc1Nc1ncc(Cl)c(Nc2ccccc2P(C)(C)=O)n1 [IRUPLINALKIB]
IC50 (BaF3 [1]): 1 nM
IC50 (cells [2]): 36 nM
IC50 (BaF3 [3]): 12 nM
IC50 (BaF3 [4]): 21 nM
Activity (LU-01-0319R [5]): Active
Activity (LU-01-0319): Active
IC50 (cells [6]): 96 nM
Vd [7]: 4.6 L/kg
IC50 (BaF3 [8]): 13 nM
Cmax [9]: 92.2 ng/mL
IC50 (cells [10]): 36 nM
IC50 (cells [11]): 21 nM
inhibition [12]: Dde
clearance [13]: 22.4 mL/min/kg
clearance [14]: 8.6 mL/min/kg
IC50 [15]: 1.8 nM
half-life [16]: 1.38 h
inhibition (NCI-H3122 [17]): Dde
half-life [18]: 6.47 h
inhibition (NCI-H3122 [19]): Active
IC50 (BaF3 [20]): 12 nM
AUC(0-t) [21]: 2450 ng·h/mL
IC50 (BaF3 [22]): 11 nM
Cmax [23]: 741 ng/mL
IC50 (BaF3 [24]): 36 nM
Cmax [25]: 499 ng/mL
IC50 (BaF3 [26]): 4 nM
Activity [27]: Non-Toxic
Activity [28]: Non-Toxic
Activity (LU-01-0319R [29]): Active
IC50 (BaF3 [30]): 15 nM
IC50 [31]: 1.6 nM
Vd [32]: 2.33 L/kg
IC50 (BaF3 [33]): 22 nM
IC50 (BaF3 [34]): 33 nM
AUC(0-t) [35]: 598 ng·h/mL
AUC(0-t) [36]: 4000 ng·h/mL
bioavailability [37]: 66.2%
IC50 (cells [38]): 11 nM
IC50 (BaF3 [39]): 8 nM
IC50 (BaF3 [40]): 24 nM
inhibition [41]: Dde
IC50 (BaF3 [42]): 17 nM
IC50 (BaF3 [43]): 32 nM
IC50 (KARPAS-299): 14.5 nM
IC50 (BaF3 [44]): 22 nM

Source: ChEMBL document CHEMBL5143665, “Discovery and preclinical evaluations of WX-0593, a novel ALK inhibitor targeting crizotinib-resistant mutations” (Bioorg Med Chem Lett, 2022)
